Assay results: PMC4578755, “Development of novel cellular histone-binding and chromatin-displacement assays for bromodomain drug discovery” (Epigenetics & Chromatin, 2015)

Experiments:
[1] = biological target: T1, TRIM24-PB binding to endogenous histone H3 in HeLa TRIM24-PB cells (Homo sapiens, UniProt O15164); test: Cellular TRIM24/histone H3 AlphaLISA binding assay; type: cell-based; details: co-treated with SAHA, 2 h, 6 independent experiments, listed as TRIM24 inhibitor, read-out: Cell EC50 (AlphaLISA)
T1 construct: The FLAG-TRIM24-PB construct (residues 810–1050) was generated by PCR amplification; expressed in transfected cells
T1 sequence (O15164 810-1050): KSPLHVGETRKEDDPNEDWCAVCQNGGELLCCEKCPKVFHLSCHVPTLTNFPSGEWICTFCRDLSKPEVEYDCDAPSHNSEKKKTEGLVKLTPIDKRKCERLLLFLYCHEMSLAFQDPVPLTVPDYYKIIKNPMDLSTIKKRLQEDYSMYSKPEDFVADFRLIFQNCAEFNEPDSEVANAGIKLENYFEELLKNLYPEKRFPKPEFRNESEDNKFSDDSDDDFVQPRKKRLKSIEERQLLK
Method: Hela TRIM24-PB cells were maintained in DMEM medium supplemented with 10 % FBS and 5 µg/mL of Blasticidin. Cells were seeded (10,000/well, 40 µL) to 384-well white culture plates (PerkinElmer, #6007680) using a Multidrop 384 reagent dispenser (Thermo Scientific) and incubated overnight at 37 °C and 5 % CO2. On Day 2, the cells were co-treated with SAHA (10 µM) and test compound and incubated at 37 °C and 5 % CO2 for 2 h. The plates were washed twice with PBS (60 µL at RT) using a Biomek FX liquid handler (Beckman Coulter). […] Plates were read on Envision plate reader (PerkinElmer) using AlphaScreen protocol and all IC50 values (four-parameter logistic curve) were obtained using GraphPad Prism 6 software. […]
All EC50 values were calculated based on these POC values using four-parametric nonlinear regression (i.e., curve fitting) software (either Genedata Screener™ software version 11 or Graphpad Prism 6). For the cell-based AlphaLISA assay, the POC values were calculated using the following wells and process: (1) a “blank subtraction” was performed by subtracting the mean signal of the blank control wells (which contained media but lacked cells) from all of the measured values; (2) these corrected values were then used in the POC formula stated above. […] Average and standard Deviation (SD) values were calculated using the Harmony software (PerkinElmer). […]

[2] = tested on: histone H3K23Ac mark in HeLa cells; test: H3K23 acetylation in HeLa cells (Western blot, anti-H3K23Ac immunostaining); type: cell-based; details: 2 h
Method: Standard IF procedures were used. Briefly, cells were permeabilized (0.5 % Triton X-100 in PBS) for 15 min and incubated with blocking solution (DAKO #X0909) for 30 min. The following primary antibodies were used: goat anti-V5 (Bethyl #A190-119A) 1:200; mouse anti-FLAG (Sigma #F1804) 1:200; rabbit anti-BRD4 (Abcam #ab128874) 1:200; rabbit anti-TRIM24 (Proteintech #14208-1-AP) 1:400; rabbit anti-K3K23Ac (Cell Signaling #8848) 1:200, and mouse anti-histone H3 (Active Motif #39763) 1:4000. Alexa Fluor-conjugated secondary antibodies were from Invitrogen and Hoechst 33342 (Invitrogen, #H3570) was used for nuclei counterstaining (10 µg/ml). For each Alexa fluorochrome, images (4–10 fields per well; 20X magnifications) were acquired using the Operetta High-Content Screening System (PerkinElmer). Image analysis was performed in Harmony software (PerkinElmer) by selecting nuclei and cytoplasm in Hoechst channel. Gating for single cells of flat morphology was done based on nuclei area, roundness and intensity of Hoechst in the nucleus and in the cytoplasm. In every gated cell, the mean signal intensity value for each fluorochrome was calculated separately in nucleus and cytoplasm. The specific nuclear signal was estimated subtracting mean cytoplasmic value from nuclear; and average value was calculated using at least 1000 cells in each well.

Row | Structure (SMILES) | EC50 [1] [µM] | H3K23 acetylation (anti-H3K23Ac immunostaining) ([2]; 3 µM, HeLa control and TRIM24-PB cells) | Cellular histone H3K23Ac mark ([2]; HDAC inhibitor treatment, 2 µM, Western blot)
1 | Cc1nc(S(=O)(=O)Nc2cc3c(cc2Oc2cccc(OCC(C)C)c2)n(C)c(=O)n3C)cn1C [IACS-6558, N-{1,3-dimethyl-6-[3-(2-methylpropoxy)phenoxy]-2-oxo-2,3-dihydro-1H-1,3-benzodiazol-5-yl}-1,2-dimethyl-1H-imidazole-4-sulfonamide] | 1.3 | – | –
2 | O=C(CCCCCCC(=O)Nc1ccccc1)NO [SAHA, Suberoylanilide Hydroxamic Acid] | – | maximal H3K23 acetylation | hyperacetylated
